Test results reported in patent US9346758B2, “Pyridinone compounds for use in photodynamic therapy” (UNIVERSITY OF EXETER, priority 2012, dated 2016).
“And” between values parts separate entries of the source, which are not always exact repeats. Equal entries are not always repeated.

How the values were obtained:
[1] = tested on: human glioblastoma cells (U87MG); assay: PpIX fluorescence accumulation; type: cell-based; settings: for PpIX accumulation (fluorescence): hydrochloride
Description: (§1) Briefly, cells were seeded at 2×10^4 cells per well in a 96 well plate and left to adhere overnight. Test solutions were prepared on the day of the assay and applied to the cells. The level of PpIX produced was monitored using a multi-well fluorescent plate reader with a 400 (±30) nm excitation filter and a 645 (±40) nm emission filter, with the level of fluorescence produced being directly proportional to the level of PpIX present. Readings were taken hourly for 6 hours and were conducted under low light conditions to reduce photobleaching of PpIX.
(§2) These were tested alongside equimolar concentrations of ALA, ALA and CP94 (3), MAL, and MAL and CP94 (3), with all test compounds being investigated in human dermal fibroblasts (84BR; FIGS. 2A and 2B), human epithelial squamous cell carcinoma cells (A431; FIGS. 3A and 3B) and human glioblastoma cells (U87MG; FIGS. 4A and 4B).

[2] = tested on: human epithelial squamous cell carcinoma cells (A431); assay: PDT efficacy: cell viability (NRU assay) following irradiation; type: cell-based
Description: (§3) To assess the effect of AP2-18 (8) on PpIX-induced PDT efficacy, the same three cell types were exposed to equimolar concentrations of ALA, ALA and CP94 (3), MAL, MAL and CP94 (3), and AP2-18 (8) (as described previously) and incubated in the dark for 4 hours. The level of PpIX accumulation was then quantified as before, prior to irradiation with red light (37 J/cm^2; 635±2 nm; Aktilite, Galderma, UK).

[3] = tested on: human glioblastoma cells (U87MG); assay: as above; type: cell-based
Description: as §3

[4] = tested on: human epithelial squamous cell carcinoma cells (A431); assay: Cell viability (NRU assay) after irradiation with varying incubation periods (2, 3 or 4 hours); type: cell-based; settings: for cell viability: A431 cells, then red light 37 J/cm^2, NRU assay, individual replicates, hydrochloride
Description: Neutral red is an inert dye actively taken up and stored by viable (living) cells, an action which is unable to be performed by non-viable cells, therefore the level of neutral red taken up is directly proportional to the number of viable cells present following a given exposure. Following uptake of the dye, cells are lysed and the level of neutral red quantified using a plate reader.
After the relevant incubation period, the cells were irradiated with red light (37 J/cm^2; 635±2 nm; Aktilite, Galderma, UK).

[5] = tested on: human dermal fibroblasts (84BR); assay: PpIX fluorescence accumulation; settings: 250-1000 μM, up to 6 hours
Description: as §1, §2

[6] = tested on: human epithelial squamous cell carcinoma cells (A431); assay: PpIX fluorescence accumulation; settings: for PpIX accumulation: A431 cells, hydrochloride;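 as to all read-outs here: PpIX fluorescence accumulating inside A431 cells, read under dim light to limit photobleaching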
Description: as §1, §2

[7] = tested on: human dermal fibroblasts (84BR); assay: PDT efficacy: cell viability (NRU assay) following irradiation; settings: 84BR; lowest concentration employed (250 μM)
Description: as §3

[8] = tested on: human epithelial squamous cell carcinoma cells (A431); assay: PpIX fluorescence after varying incubation periods (2, 3 or 4 hours); settings: for PpIX fluorescence: A431 cells, individual replicates, hydrochloride
Description: as §1

Q: What does the source list for CCc1c(O)c(O)cc[n+]1CCOC(=O)CCC(=O)CN.Cl.[Cl-] [AP2-18, 1-(2-(5-amino-4-oxopentanoyloxy)ethyl)-2-ethyl-3,4-dihydroxypyridinium chloride hydrochloride]?
A: PpIX accumulation (fluorescence) ([1]; 250 μM (combinations: 250 μM each), exposure time 2 hours): 114.3 and 128.3 and 146.3 and 125.67 and 126.67 and 129.67 and 130.67 and 128.67; PpIX accumulation (fluorescence) ([1]; 250 μM (combinations: 250 μM each), exposure time 3 hours): 172 and 199 and 221 and 195 and 196 and 189.33 and 195.33 and 184.33; PpIX accumulation (fluorescence) ([1]; 500 μM (combinations: 500 μM each), exposure time 3 hours): 312 and 308 and 267 and 279 and 251.33 and 271.33 and 273.33; PpIX accumulation (fluorescence) ([1]; 1000 μM (combinations: 1000 μM each), exposure time 4 hours): 519 and 469 and 361 and 447 and 468 and 478 and 456 and 499; PpIX accumulation vs ALA or MAL alone or with CP94 ([1]; 250-1000 μM, up to 6 hours): significantly increase PpIX accumulation; reduction in cell viability following PDT [2]: significant reductions in cell viability; PpIX-induced PDT cell kill [3]: highly effective PpIX-induced PDT cell kill; cell kill on irradiation compared with ALA or MAL ([4]; A431, incubation 2, 3 or 4 hours, greatest cytotoxicity at 4 hours): statistically significant increases in cell kill; cell viability ([4]; 250 μM (each drug), incubation time 2 hours, 250 µM): 97.7 and 86.79 and 91.73 and 133.2414 and 62.66 and 106.5847 and 64.29 and 96.8 and 131.2186; cell viability ([4]; 250 μM (each drug), incubation time 3 hours, 250 µM): 86.93 and 101.2448 and 79.7 and 62.46 and 60.17 and 62.3481 and 33.56 and 37.89 and 49.02 and 32.65 and 47.7341 and 52.75; cell viability ([4]; 250 μM (each drug), incubation time 4 hours, 250 µM): 7.088 and 6.582 and 5.929 and 7.34 and 6.99 and 6.52 and 32.03 and 32.79 and 31.11; cell viability ([4]; 500 μM (each drug), incubation time 2 hours, 500 µM): 12.86 and 12.74 and 16.04 and 53.68 and 42.01 and 55.47 and 60.64 and 70.31 and 124.24; cell viability ([4]; 500 μM (each drug), incubation time 3 hours, 500 µM): 102.5418 and 125.9215 and 67.1 and 33.04 and 31.45 and 38.59 and 68.88 and 42.19 and 58.38 and 49.61 and 46.3628 and 69.56; cell viability ([4]; 500 μM (each drug), incubation time 4 hours, 500 µM): 6.023 and 6.336 and 6.646 and 7.159 and 7.63 and 6.693 and 42.88 and 32.5727 and 25.11; cell viability ([4]; 1000 μM (each drug), incubation time 2 hours, 1000 µM): 96.31 and 83.65 and 82.62 and 98.19 and 107.1891 and 53.91 and 80.39 and 46.21 and 97.83; cell viability ([4]; 1000 μM (each drug), incubation time 3 hours, 1000 µM): 92.47 and 93.28 and 87.85 and 39.73 and 38.74 and 37.68 and 45.15 and 47.25 and 41.05 and 50.59 and 59.84 and 82.37; cell viability ([4]; 1000 μM (each drug), incubation time 4 hours, 1000 µM): 6.315 and 6.002 and 5.891 and 7.607 and 8.758 and 7.362 and 38.09 and 34.2 and 25.3; PpIX accumulation vs ALA or MAL alone or with CP94 [5]: significantly increase PpIX accumulation; PpIX accumulation vs ALA or MAL alone or with CP94 ([6]; A431, 250-1000 μM, up to 6 hours): significantly increase PpIX accumulation; PpIX accumulation ([6]; 500 μM (each component), exposure time 1 hour): 21.33 and 33.67 and 22.67 and 28.67 and 33 and 32 and 29; PpIX accumulation ([6]; 1000 μM (each component), exposure time 1 hour): 41.33 and 38.33 and 49.33 and 33.67 and 34.67 and 36.67 and 49 and 51; PpIX accumulation ([6]; 1000 μM (each component), exposure time 2 hours): 58.33 and 69.33 and 58.67 and 63.67 and 78.67 and 97.67 and 93.67; reducing cell viability following PDT vs other treatment parameters [7]: significantly better; PpIX vs highest doses of ALA or MAL (1000 μM) at 4 hours ([8]; A431, 250 μM, 2 hours incubation): produced more PpIX; PpIX levels vs other treatment parameters ([8]; A431, 1000 μM, four hours incubation): statistically significant higher PpIX levels than any other treatment parameters investigated; PpIX fluorescence ([8]; 500 μM (each drug), incubation time 2 hours): 35.33 and 33.33 and 57.67 and 49.67 and 55.67 and 58.67 (2×) and 69.67 and 58.33; PpIX fluorescence ([8]; 500 μM (each drug), incubation time 3 hours): 59.33 and 67.33 and 62.33 and 114.33 (2×) and 109.33 and 119.67 and 139.67 and 118.67; PpIX fluorescence ([8]; 500 μM (each drug), incubation time 4 hours): 71.67 and 82.67 and 73.67 and 137.67 and 136.67 and 140.67 and 151.67 and 177.67 and 146.67; PpIX fluorescence ([8]; 1000 μM (each drug), incubation time 2 hours): 58.33 and 69.33 and 58.67 (2×) and 63.67 and 78.67 and 97.67 and 93.67 (2×); PpIX fluorescence ([8]; 1000 μM (each drug), incubation time 3 hours): 96.33 and 100.33 and 116.33 and 117.33 and 114.33 and 118.33 and 144.67 and 180.67 and 182.67; PpIX fluorescence ([8]; 1000 μM (each drug), incubation time 4 hours): 113.67 and 119.67 and 140.67 and 145.67 and 139.67 and 141.67 and 177.67 and 221.67 and 225.67
